Key:
Type in all cases: in vivo, Male ICR mice
[1] = tested on: mice; experiment: acetic acid-induced writhing test
Method: (§1) In the following Examples, all extracts and drugs used were dissolved in physiological saline before use for i.p. administration and the dose was 0.1 ml of physiological saline per 10 g of mouse body weight in either case. All extracts and drugs were suspended in physiological saline containing 1% sodium carboxymethylcellulose before use for oral administration and the dose was 0.1 ml of 1% sodium carboxymethylcellulose-containing physiological saline suspension per 10 g of mouse body weight in either case. Male ICR mice (Japan SLC) having a body weight of 25 to 30 g were used in the tests below unless otherwise stated, and were fed in advance at a room temperature of 23±1° C. and a relative humidity of 55±5% in the environment of a cycle of 12-hour-light from 7 a.m. to 7 p.m. and 12-hour-dark from 7 p.m. to 7 a.m. for 3 to 5 days. The mice were allowed to have water and feed freely.
An acetic acid-induced writhing test is a method wherein analgesic action of a compound is determined utilizing this. The number of this writhing is compared between a physiological saline-administered control group and a test drug-administered group, and suppression of the number of writhing by the test drug is investigated thereby assessing its analgesic action.
Seven to ten mice per group were used. Neferine hydrochloride was subcutaneously administered to mice at their back at a dose of 5 mg/kg, 10 mg/kg, 25 mg/kg, 50 mg/kg or 100 mg/kg and, after 15 minutes, a 0.6% by weight solution of acetic acid in water was intraperitoneally administered at 0.1 mL/10 g body weight. The number of writhing was counted every ten minutes for 30 minutes from immediately after acetic acid administration (0 to 10 min, 10 to 20 min, 20 to 30 min). In addition, the total number of writhing for 30 minutes from immediately after acetic acid administration was also obtained. Regarding the resulting measurements, a significant difference test was performed by a Dunnet multiple comparison test method.
According to the same manner as in acetic acid-induced writhing test-1 except that acetic acid was intraperitoneally administered 30 minutes after subcutaneous administration of neferine in the aforementioned acetic acid-induced writhing test-1, an acetic acid-induced writhing test was performed. However, the dose of neferine was only 50 mg/kg.
According to the same manner as in the acetic acid-induced writhing test-1 except that acetic acid was intraperitoneally administered 30 minutes after oral administration of neferine in the aforementioned acetic acid-induced writhing test-1, an acetic acid-induced writhing test was performed. However, five to six mice per group were used. The dose of neferine was 10 mg/kg and 50 mg/kg. Further, aspirin was used as a positive control drug. The dose of aspirin was 50 mg/kg.
(§2) According to the same manner as in acetic acid-induced writhing test-1 except that armepavine was used in place of neferine in the aforementioned acetic acid-induced writhing test-1, an acetic acid-induced writhing test was performed. However, the dose of armepavine was 5 mg/kg and 10 mg/kg.
as §2, with “O-methylarmepavine” for “armepavine”

[2] = tested on: mice; experiment: locomotor activity (ultromotivity) test, evaluation of sedative action
Method: as §1
Twenty five mice were grouped into five groups each having five mice, to which 5 mg/kg of N-methylcoclaurine hydrochloride (treatment group 1-1: i.p. administration), 50 mg/kg of neferine hydrochloride (treatment group 1-2: oral administration, and treatment group 1-3: i.p. administration), 50 mg/kg of liensinine hydrochloride (treatment group 1-4: oral administration), or physiological saline (negative control group 1-1: i.p. administration) was administered. The ultromotivity of the mice was analyzed by using a locomotor activity monitoring system (NS-AS01, Neuroscience Inc.). The ultromotivity measurements were performed at an interval of 5 minutes for 60 minutes, and the ultromotivity was judged from the count at each measuring time.
Similar tests were conducted by i.p. administration of 25 mg/kg of N-norarmepavine (treatment group 1-5, n=6), 25 mg/kg of O,O-dimethylcoclaurine (treatment group 1-6, n=5), 10 mg and 25 mg/kg of armepavine (respectively, treatment group 1-7, n=6, and treatment group 1-8, n=6), 10 mg and 25 mg/kg of O-methylarmepavine (respectively, treatment group 1-9, n=6, and treatment group 1-10, n=6), and physiological saline (negative control group 1-2, n=5). The ultromotivity measurements were performed at an interval of five minutes for 60 minutes, and the ultromotivity was subjected to a significant difference test (Tukey's method) by using the counts at respective measuring times.
Tests were performed by using mice administered intraperitoneally with 25 mg/kg of neferine hydrochloride (treatment group 7-1, n=6), 25 mg/kg of liensinine hydrochloride (treatment group 7-2, n=6), and physiological saline (negative control group, n=6) as well as 5 mg/kg of diazepam (positive control group, n=6) and a rotarod equipment (Ugo Basile, Italy) and a locomotor activity monitoring system (NS-AS01, Neuroscience Inc.). The rotarod test was performed by placing a mouse on a rod having a diameter of 4 cm rotating at a speed of 8 rpm 15 minutes after drug administration and observing whether the mouse can stay on the rod without falling for three minutes. The individuals that had fallen from the rotating rod in the period of 3 minutes were judged that they are with motor coordination disorder. […] In addition, the ultromotivity measurements were performed at an interval of five minutes for 60 minutes, and the ultromotivity results were subjected to a significant difference test (Tukey's method) by using the counts at respective measuring times.

[3] = tested on: mice; experiment: rotarod test (motor coordination); conditions: 5 mg/kg i.p., n=6, 15 minutes after administration, 8 rpm, three minutes
Method: as §1
Tests were performed by using mice administered intraperitoneally with 25 mg/kg of neferine hydrochloride (treatment group 7-1, n=6), 25 mg/kg of liensinine hydrochloride (treatment group 7-2, n=6), and physiological saline (negative control group, n=6) as well as 5 mg/kg of diazepam (positive control group, n=6) and a rotarod equipment (Ugo Basile, Italy) and a locomotor activity monitoring system (NS-AS01, Neuroscience Inc.). […]

[4] = tested on: mice; experiment: formalin pad test; conditions: 10 mg/kg i.p. 15 minutes before formalin
Method: as §1
A formalin pad test is a method in which, when formalin is subcutaneously administered to a pad of a mouse, the mouse causes licking, and analgesic action of a test drug is determined by utilizing this. Suppression of licking in a test drug-administered group was investigated relative to a physiological saline-administered control group, and analgestic action was evaluated.
Six mice per group were used. Neferine hydrochloride was intraperitoneally administered at a dose of 25 mg/kg, 50 mg/kg or 100 mg/kg and, after fifteen minutes, 20 μl of a 0.2% by weight formalin aqueous solution was subcutaneously administered to a right hind paw pad. After formalin administration, licking was regarded as a provisional pain reaction, and a licking sustaining time in a first phase from immediately after formalin administration to five minutes after formalin administration and in a second phase from 15 minutes to 30 minutes after formalin administration was measured. Regarding the resulting measurements, a significant difference test was performed by a Dunnet multiple comparison test method.
According to the same manner as in Example 13 except that 10 mg/kg of O-methylarmepavine was intraperitoneally administered in place of neferine, a formalin pad test was performed.

[5] = tested on: mice; experiment: histamine-induced paw edema test; conditions: 10 mg/kg i.p. 15 minutes before histamine 10 μg; 12 minutes after histamine
Method: as §1
Six mice per group were used. […] The thickness of the right hind paw was measured immediately before histamine administration and 12 minutes after histamine administration. The thickness immediately before administration was subtracted from the thickness of the paw after histamine administration, and this was adopted as a thickness of paw edema. As apparent from TABLE 18, paw edema due to histamine was suppressed by neferine. […]

[6] = 5 mg/kg s.c. 15 minutes before acetic acid
[7] = 10 mg/kg s.c. 15 minutes before acetic acid
[8] = 50 mg/kg oral 30 minutes before acetic acid

SMILES: COc1cc2c(cc1OC)C(Cc1ccc(O)cc1)N(C)CC2 (centres unmarked) [armepavine]
- Number of writhing 0-10 min. [1, 6]: 19.0 ± 3.21
- Number of writhing 0-30 min. [1, 6]: 41.7 ± 5.24
- Number of writhing 10-20 min. [1, 6]: 14.7 ± 1.92
- Number of writhing 20-30 min. [1, 6]: 9.4 ± 1.81
- Number of writhing 0-10 min. [1, 7]: 8.6 ± 1.41
- Number of writhing 0-30 min. [1, 7]: 24.6 ± 4.23
- Number of writhing 10-20 min. [1, 7]: 10.7 ± 2.24
- Number of writhing 20-30 min. [1, 7]: 5.3 ± 1.39

SMILES: COc1cc2c(cc1OC)[C@@H](Cc1ccc(O)c(Oc3cc4c(cc3OC)CCN(C)[C@@H]4Cc3ccc(O)cc3)c1)N(C)CC2 [liensinine]
- Ultromotivity (count) 30 minutes ([2]; 50 mg/kg oral): 600 count
- Ultromotivity (count) 60 minutes ([2]; 50 mg/kg oral): 800 count

SMILES: CN1C(=O)CN=C(c2ccccc2)c2cc(Cl)ccc21 [diazepam]
- Number of individuals fallen [3]: 5

SMILES: COc1cc2c(cc1O)[C@@H](Cc1ccc(O)cc1)N(C)CC2 [N-methylcoclaurine]
- sedative activity compared with neferine and liensinine ([2]; 5 mg/kg i.p. versus 50 mg/kg of the bisbenzylisoquinolines): extremely higher activity
- Ultromotivity (count) 30 minutes ([2]; 5 mg/kg i.p.): 250 count
- Ultromotivity (count) 60 minutes ([2]; 5 mg/kg i.p.): 250 count

SMILES: CC(=O)Oc1ccccc1C(=O)O [aspirin, reference compound]
- Number of writhing 0-10 min. [1, 8]: 10.8 ± 3.41
- Number of writhing 0-30 min. [1, 8]: 3.34 ± 5.35
- Number of writhing 10-20 min. [1, 8]: 15.2 ± 1.83
- Number of writhing 20-30 min. [1, 8]: 7.4 ± 1.23

SMILES: COc1ccc(C[C@@H]2c3cc(OC)c(OC)cc3CCN2C)cc1 [O-methylarmepavine]
- Number of writhing 0-10 min. [1, 6]: 11.6 ± 1.41
- Number of writhing 0-30 min. [1, 6]: 30.2 ± 1.90
- Number of writhing 10-20 min. [1, 6]: 11.2 ± 2.25
- Number of writhing 20-30 min. [1, 6]: 7.4 ± 1.52
- Number of writhing 0-10 min. [1, 7]: 5.9 ± 1.73
- Number of writhing 0-30 min. [1, 7]: 13.3 ± 1.69
- Number of writhing 10-20 min. [1, 7]: 4.3 ± 1.19
- Number of writhing 20-30 min. [1, 7]: 3.1 ± 0.58
- Licking sustaining time (second) First phase ([4]; 0 to 5 minutes): 70.9 ± 11.24 s
- Licking sustaining time (second) Second phase ([4]; 15 to 30 minutes): 126.9 ± 18.4 s
- Thickness of paw edema (mm) [5]: 0.37 ± 0.06 mm

Source: patent US20070027181A1, “Benzylisoquinoline derivative- or bisbenzylisoquinoline derivative-containing psychotropic agent, analgesic and/or antiphlogistic, and health food” (EDUCATION CENTER OF TRADITIONAL, priority 2004, published 2007)
